As a reminder, the pIC50 is the negative decadic logarithm of the IC50, by convention in mol/L.

Assay type in all cases: biochemical
For one assay, the target named is T1, DYRK1A (Homo sapiens, UniProt Q13627).
T1 construct: purchased Carna Biosciences, Inc. 04-130
The assay can be described thus: Inhibition test on activity of DYRK family, mobility shift assay (MSA), DYRK1A. The settings on record: ATP 100 μM, FITC-labeled DYRKtide peptide substrate, room temperature 1 hour; for pIC50: read-out: Inhibitory Activity 1a (IC50 against DYRK1A). As to the method:
(§1) [Inhibition Test on Activity of DYRK Family (DYRK1A, DYRK1B, DYRK2, and […])]
(§2) (Method for Measuring Kinase Activity)
(§3) The kinase activity was measured by mobility shift assay (MSA) method using QuickScout Screening Assist™ MSA (commercially available kit manufactured by Carna Biosciences, Inc.). The substrate of the kinase reaction used was an FITC-labeled DYRKtide peptide included in the kit. An assay buffer [20 mM HEPES, 0.01% Triton X-100™, 2 mM dithiothreitol, pH 7.5] was used to create a substrate mixture solution with a substrate (4 μM), MgCl2 (20 mM), and ATP (DYRK1A: 100 μM; DYRK1B: 200 μM; DYRK2: 40 μM; and DYRK3: 20 μM). In addition, kinases (DYRK1A: manufactured by Carna Biosciences, Inc., Cat. No. 04-130; DYRK1B: manufactured by Carna Biosciences, Inc., Cat. No. 04-131; DYRK2; manufactured by Carna Biosciences, Inc., Cat. No. 04-132; and DYRK3; manufactured by Carna Biosciences, Inc., Cat. No. 04-133) were diluted with the assay buffer to prepare enzyme solutions (DYRK1A: 0.2 ng/μL; DYRK1B: 0.08 ng/μL; DYRK2: 0.04 ng/μL; and DYRK3: 0.25 ng/μL). The 10 mM solution of the test compound in DMSO was further diluted with DMSO to 10 levels of the concentration (0.00003 mM, 0.0001 mM, 0.0003 mM, 0.001 mM, 0.003 mM, 0.01 mM, 0.03 mM, 0.1 mM, 0.3 mM, and 1 mM), each of which was subjected to 25-fold dilution with the assay buffer to obtain a drug solution (4% DMSO solution). 5 μL of the drug solution or a control solution (4% DMSO-assay buffer), 5 μL of the substrate mixture solution, and 10 μL of the enzyme solution were mixed in the wells of a polypropylene 384-well plate and allowed to react at room temperature for 1 hour, and then the reaction was quenched by adding 60 μL of the termination buffer included in the kit. Subsequently, the quantities of the substrates (S) and the phosphorylated substrate (P) in the reaction solution were measured using LabChip EZ Reader II system (manufactured by Caliper Life Sciences) according to the protocol of the assay kit.
(§4) (Method for Evaluating Inhibitory Activity)
(§5) The heights of the peaks of the “substrate” and the “phosphorylated substrate” were expressed as S and P, respectively, and a blank containing the assay buffer instead of the enzyme solution was also measured.
(§6) The inhibition rate (%) of the test compound was calculated according to the following equation:
(§7) Inhibition rate (%)=(1−(C−A)/(B−A))×100
(§8) wherein, A, B, and C represent P/(P+S) of the blank well, P/(P+S) of the control solution well, and P/(P+S) of the compound-containing well, respectively.
(§9) The IC50 value was calculated via a regression analysis of the inhibition rate and the test compound concentration (logarithmic value).
(§10) The inhibiting activities of representative compounds of the present invention are shown against DYRK1A, DYRK1B, DYRK2, and DYRK3 in Tables 7 and 8. The kinase activity inhibitory effect was indicated with the mark *** at an IC50 value of less than 0.01 μM; the mark ** at 0.01 μM or more and less than 0.1 μM; the mark * at 0.1 μM or more and less than 1 μM; and the mark — at 1 μM or more (N.D. indicates not measured).

The next assay has as its target T2, DYRK2 (Homo sapiens, UniProt Q92630).
T2 construct: purchased Carna Biosciences, Inc. 04-132
T2 sequence (Q92630 1-601): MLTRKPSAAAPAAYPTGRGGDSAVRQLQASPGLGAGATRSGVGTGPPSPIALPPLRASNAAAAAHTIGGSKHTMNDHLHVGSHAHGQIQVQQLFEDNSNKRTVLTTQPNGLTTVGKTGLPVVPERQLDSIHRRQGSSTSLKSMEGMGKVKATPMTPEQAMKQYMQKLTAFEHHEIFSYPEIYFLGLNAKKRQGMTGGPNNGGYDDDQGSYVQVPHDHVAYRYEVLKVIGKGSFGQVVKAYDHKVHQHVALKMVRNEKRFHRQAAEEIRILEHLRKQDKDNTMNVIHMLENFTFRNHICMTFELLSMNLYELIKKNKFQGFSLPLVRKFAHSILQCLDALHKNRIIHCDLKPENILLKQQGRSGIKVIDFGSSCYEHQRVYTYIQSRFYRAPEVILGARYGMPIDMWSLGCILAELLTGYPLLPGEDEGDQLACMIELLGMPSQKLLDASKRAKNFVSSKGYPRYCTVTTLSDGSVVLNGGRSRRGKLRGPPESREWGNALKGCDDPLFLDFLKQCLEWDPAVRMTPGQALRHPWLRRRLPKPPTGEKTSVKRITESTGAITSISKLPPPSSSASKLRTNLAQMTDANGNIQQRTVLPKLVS
The assay can be described thus: Inhibition test on activity of DYRK family, mobility shift assay (MSA), DYRK2. The settings on record: ATP 40 μM, FITC-labeled DYRKtide peptide substrate, room temperature 1 hour; for pIC50: read-out: Inhibitory Activity 2 (IC50 against DYRK2). The method, then: as §1, §2, §3, §4, §5, §6, §7, §8, §9, §10

The next assay has as its target T3, DYRK3 (Homo sapiens, UniProt O43781).
T3 construct: purchased Carna Biosciences, Inc. 04-133
T3 sequence (O43781 1-588): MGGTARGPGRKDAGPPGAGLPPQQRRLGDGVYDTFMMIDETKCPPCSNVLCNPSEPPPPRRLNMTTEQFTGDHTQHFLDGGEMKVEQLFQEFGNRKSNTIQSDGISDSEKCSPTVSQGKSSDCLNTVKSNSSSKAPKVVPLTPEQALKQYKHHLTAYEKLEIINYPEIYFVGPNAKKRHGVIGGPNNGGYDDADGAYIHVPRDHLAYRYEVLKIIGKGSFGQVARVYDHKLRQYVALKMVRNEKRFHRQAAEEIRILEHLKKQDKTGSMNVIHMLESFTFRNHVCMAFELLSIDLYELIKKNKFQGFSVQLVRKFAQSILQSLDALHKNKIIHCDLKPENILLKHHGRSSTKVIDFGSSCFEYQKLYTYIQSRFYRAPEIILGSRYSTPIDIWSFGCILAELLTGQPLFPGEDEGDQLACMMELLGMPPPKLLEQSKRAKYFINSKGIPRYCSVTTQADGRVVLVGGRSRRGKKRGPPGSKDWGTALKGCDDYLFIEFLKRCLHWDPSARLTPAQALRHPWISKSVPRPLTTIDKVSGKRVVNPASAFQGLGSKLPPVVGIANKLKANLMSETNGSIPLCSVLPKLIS
The assay can be described thus: Inhibition test on activity of DYRK family, mobility shift assay (MSA), DYRK3. The settings on record: ATP 20 μM, FITC-labeled DYRKtide peptide substrate, room temperature 1 hour; for pIC50: read-out: Inhibitory Activity 3 (IC50 against DYRK3). As to the method:
as §1, §2, §3, §4, §5, §6, §7, §8, §9, §10

Molecules are shown by their SMILES. pIC50: −log10 of the molar value.

Consider `CC#CC1CNC(=O)N1c1nc2c3c(ccc2s1)OCCN3CCN1CCN(C)CC1` (racemic) [Example 44, (RS)-1-{9-[2-(4-methylpiperazin-1-yl)ethyl]-8,9-dihydro-7H-thiazolo[4′,5′:3,4]benz[1,2-b][1,4]oxazin-2-yl}-5-(prop-1-yn-1-yl)imidazolidin-2-one], for which the pIC50 on DYRK1A, at DYRK2 and at DYRK3 was ≤ 6.00 each time.

On to `CC#C[C@@H]1[C@@H](C)NC(=O)N1c1nc2c3c(ccc2s1)OCC3` [Example 16, (4R,5R)-1-(7,8-dihydrobenzofuro[4,5-d]thiazol-2-yl)-4-methyl-5-(prop-1-yn-1-yl)imidazolidin-2-one], for which the “Inhibitory Activity 1a (IC50 against DYRK1A)” value (“Inhibitory Activity 1a” for short) at DYRK1A is reported as “* * *”. Besides, the results for the pIC50 on DYRK2 and on DYRK3 were ≤ 6.00 and 6.00 to 7.00, respectively.

On to `CC#CC1CNC(=O)N1c1nc2c(ccc3nccn32)s1` (racemic) [Example 6, (RS)-1-(imidazo[1,2-a]thiazolo[5,4-e]pyridin-2-yl)-5-(prop-1-yn-1-yl)imidazolidin-2-one], for which the “Inhibitory Activity 1a” value on DYRK1A is recorded as “* * *”. The negative logarithm of the IC50 (pIC50) on DYRK2 and at DYRK3 was 6.00 to 7.00 throughout.

Turning to `CC#CC1C(CN)NC(=O)N1c1nc2c3c(ccc2s1)OCC3` (stereo not drawn) [Example 63, 4-(aminomethyl)-1-(7,8-dihydrobenzofuro[4,5-d]thiazol-2-yl)-5-(prop-1-yn-1-yl)imidazolidin-2-one], the “Inhibitory Activity 1a” value on DYRK1A is recorded as “* * *”. Moreover, on DYRK2, the pIC50 was 6.00 to 7.00. Moreover, the “Inhibitory Activity 3 (IC50 against DYRK3)” value on DYRK3 was “* *”.

Take `CC#C[C@@H]1[C@H](C)NC(=O)N1c1nc2c3c(ccc2s1)OCCC3` [Example 57, (4S,5R)-1-(8,9-dihydro-7H-chromeno[5,6-d]thiazol-2-yl)-4-methyl-5-(prop-1-yn-1-yl)imidazolidin-2-one]: the “Inhibitory Activity 1a” value on DYRK1A was “* * *”. For the same compound, the pIC50 at DYRK2 and on DYRK3 was 6.00 to 7.00 each time.

For the compound `CC#C[C@H]1[C@H](CC)NC(=O)N1c1nc2c3c(ccc2s1)OCC3` (single isomer, unassigned) [Example 72, trans-1-(7,8-dihydrobenzofuro[4,5-d]thiazol-2-yl)-4-ethyl-5-(prop-1-yn-1-yl)imidazolidin-2-one], the negative logarithm of the IC50 (pIC50) is 6.00 to 7.00 on DYRK1A, ≤ 6.00 at DYRK2 and ≤ 6.00 at DYRK3.

Turning to `CC#C[C@@H]1[C@H](C(C)C)NC(=O)N1c1nc2c3c(ccc2s1)OCC3` [Example 68, (4S,5R)-1-(7,8-dihydrobenzofuro[4,5-d]thiazol-2-yl)-4-isopropyl-5-(prop-1-yn-1-yl)imidazolidin-2-one], the “Inhibitory Activity 1a” value on DYRK1A is on record as “* * *”. Also, the figures for the pIC50 on DYRK2 and at DYRK3 were ≤ 6.00 and 6.00 to 7.00, respectively.

`CC#CC1CNC(=O)N1c1nc2c(ccc3ocnc32)s1` (single isomer, unassigned) [Example 53, 5-(prop-1-yn-1-yl)-1-(thiazolo[5′,4′:5,6]benz[1,2-d]oxazol-7-yl)imidazolidin-2-one]: the figures for the pIC50 on DYRK1A, at DYRK2 and at DYRK3 were 6.00 to 7.00, ≤ 6.00 and ≤ 6.00, respectively.

Turning to `CC#CC1CNC(=O)N1c1nc2c3c(ccc2s1)OCCN3CCN1CCCCC1` (racemic) [Example 43, (RS)-1-{9-[2-(piperidin-1-yl)ethyl]-8,9-dihydro-7H-thiazolo[4′,5′:3,4]benz[1,2-b][1,4]oxazin-2-yl}-5-(prop-1-yn-1-yl)imidazolidin-2-one], the pIC50 is 6.00 to 7.00 at DYRK1A, ≤ 6.00 at DYRK2 and ≤ 6.00 on DYRK3.

For the compound `COCC#CC1CNC(=O)N1c1nc2c3c(ccc2s1)OCC3` (racemic) [Example 20, (RS)-1-(7,8-dihydrobenzofuro[4,5-d]thiazol-2-yl)-5-(3-methoxyprop-1-yn-1-yl)imidazolidin-2-one], the pIC50 on DYRK1A was 6.00 to 7.00; on DYRK2 it was ≤ 6.00; at DYRK3, ≤ 6.00.

Take `CC#C[C@H]1[C@H](COC)NC(=O)N1c1nc2c3c(ccc2s1)OCC3` (single isomer, unassigned) [Example 77, trans-1-(7,8-dihydrobenzofuro[4,5-d]thiazol-2-yl)-4-(methoxymethyl)-5-(prop-1-yn-1-yl)imidazolidin-2-one]: at DYRK1A, the “Inhibitory Activity 1a” value is given as “* *”. Moreover, the negative logarithm of the IC50 (pIC50) on DYRK2 and on DYRK3 was ≤ 6.00 in each case.

`CC#CC1N(c2nc3c4c(ccc3s2)OCC4)C(=O)NC1(C)C` (racemic) [Example 54, (RS)-1-(7,8-dihydrobenzofuro[4,5-d]thiazol-2-yl)-4,4-dimethyl-5-(prop-1-yn-1-yl)imidazolidin-2-one]: on DYRK1A, the “Inhibitory Activity 1a” value is recorded as “* *”. Moreover, the pIC50 at DYRK2 and on DYRK3 was ≤ 6.00 in each case.

Consider `CC#CC1CNC(=O)N1c1nc2c(ccc3ncccc32)s1` (single isomer, unassigned) [Example 34, 5-(prop-1-yn-1-yl)-1-(thiazolo[4,5-f]quinolin-2-yl)imidazolidin-2-one], for which the “Inhibitory Activity 1a” value at DYRK1A was “* * *”. Also, the “Inhibitory Activity 2 (IC50 against DYRK2)” value at DYRK2 is reported as “* *”. The “Inhibitory Activity 3 (IC50 against DYRK3)” value at DYRK3 is listed as “* *”.

Take `CC#C[C@@H]1[C@H](C)NC(=O)N1c1nc2c3c(ccc2s1)OCO3` [Example 23, (4S,5R)-1-([1,3]dioxolo[4′,5′:5,6]benzo[1,2-d]thiazol-7-yl)-4-methyl-5-(prop-1-yn-1-yl)imidazolidin-2-one]: the “Inhibitory Activity 1a” value at DYRK1A was “* * *”. For the same compound, the pIC50 on DYRK2 and on DYRK3 was 6.00 to 7.00 in each case.

(Values after US20230138851A1, “NOVEL ALKYNE DERIVATIVES” (CARNA BIOSCIENCES, INC., priority 2020, published 2023).)
